The record followed here is ChEMBL document CHEMBL5036314, “Structure-Guided Design of the First Noncovalent Small-Molecule Inhibitor of CRM1” (J Med Chem, 2021).

The target of assay [1] is Exportin-1 (Saccharomyces cerevisiae) (UniProt P30822). Nature of the assay: Inhibition of GST-NES MVM binding to yeast CRM1 at 20 uM by pull down assay.
The subject of assay [2] is HeLa. Nature of the assay: Anti-cancer activity against human HeLa cells assessed as cell viability at 20 uM incubated for 2 hrs by EdU incorporation based assay. It is filed as functional.
In another assay the test system is Saccharomyces cerevisiae. Nature of the assay: Inhibition of NES binding to yeast CRM1-T539 mutant in absence of RanGTP at 20 uM by pull down assay.
Assay [3] relates to HeLa. Nature of the assay: Binding affinity to human CRM1 C528S mutant transfected HeLa cells assessed as inhibition of nuclear export of cargoes at 2 uM incubated for 12 hrs by confocal microscope analysis. Type of assay: cell-based.
For another assay, the target named is Exportin-1 (Homo sapiens, UniProt O14980). Description: Binding affinity to wild type human CRM1 transfected HeLa cells assessed as inhibition of nuclear export of cargoes at 2 uM incubated for 12 hrs by confocal microscope analysis. It is filed as cell-based.
Exportin-1, sequence (O14980 whole entry): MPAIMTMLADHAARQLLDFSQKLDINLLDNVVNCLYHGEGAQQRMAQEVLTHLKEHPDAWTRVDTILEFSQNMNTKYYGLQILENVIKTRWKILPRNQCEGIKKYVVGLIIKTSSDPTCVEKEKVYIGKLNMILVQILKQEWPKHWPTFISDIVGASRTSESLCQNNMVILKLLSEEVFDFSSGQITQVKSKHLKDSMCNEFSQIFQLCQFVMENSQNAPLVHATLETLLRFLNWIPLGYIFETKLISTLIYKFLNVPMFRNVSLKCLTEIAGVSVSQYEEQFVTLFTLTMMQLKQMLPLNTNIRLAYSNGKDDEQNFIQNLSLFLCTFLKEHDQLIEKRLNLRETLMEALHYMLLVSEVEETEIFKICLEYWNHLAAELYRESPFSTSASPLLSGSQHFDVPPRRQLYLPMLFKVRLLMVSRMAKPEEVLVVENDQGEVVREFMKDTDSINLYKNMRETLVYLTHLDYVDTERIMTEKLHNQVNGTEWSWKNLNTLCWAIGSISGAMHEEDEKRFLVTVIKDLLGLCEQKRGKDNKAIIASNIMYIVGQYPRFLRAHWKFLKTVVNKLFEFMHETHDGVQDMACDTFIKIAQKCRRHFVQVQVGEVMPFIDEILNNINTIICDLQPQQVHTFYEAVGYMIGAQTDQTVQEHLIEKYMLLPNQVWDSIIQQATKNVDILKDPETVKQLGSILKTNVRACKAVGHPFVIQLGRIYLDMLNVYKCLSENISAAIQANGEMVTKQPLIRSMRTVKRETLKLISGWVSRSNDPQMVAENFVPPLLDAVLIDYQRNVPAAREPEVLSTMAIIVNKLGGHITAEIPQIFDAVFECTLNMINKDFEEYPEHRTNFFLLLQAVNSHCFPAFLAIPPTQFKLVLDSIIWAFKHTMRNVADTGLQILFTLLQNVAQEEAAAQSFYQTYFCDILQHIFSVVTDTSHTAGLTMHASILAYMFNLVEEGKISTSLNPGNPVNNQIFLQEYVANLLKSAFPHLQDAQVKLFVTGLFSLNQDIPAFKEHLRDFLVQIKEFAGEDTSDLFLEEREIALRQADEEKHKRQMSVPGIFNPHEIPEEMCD
For the next assay, the system named is PANC-1. Description: Anti-cancer activity against human PANC-1 cells assessed as cell survival at 10 uM for 72 hrs replaced with compound containing fresh culture medium every 12 hrs by Sulforhodamine B assay. It is filed as functional, cell-based. In general terms: Sulforhodamine B stains cellular protein and so reports cell mass.
A further assay relates to Huh-7. Description: Anti-cancer activity against human HuH-7 cells assessed as cell survival at 10 uM for 72 hrs replaced with compound containing fresh culture medium every 12 hrs by Sulforhodamine B assay. It is filed as functional, cell-based.
The test system of the next assay is HCT-116. Nature of the assay: Anti-cancer activity against human HCT-116 cells assessed as cell survival at 10 uM for 72 hrs replaced with compound containing fresh culture medium every 12 hrs by Sulforhodamine B assay. Type of assay: functional, cell-based.
In a further assay the test system is A2780. Description: Anti-cancer activity against human A2780 cells assessed as cell survival at 10 uM for 72 hrs replaced with compound containing fresh culture medium every 12 hrs by Sulforhodamine B assay. Type of assay: functional, cell-based.
For the next assay, the system named is MGC-803. Description: Anti-cancer activity against human MGC-803 cells assessed as cell survival at 10 uM for 72 hrs replaced with compound containing fresh culture medium every 12 hrs by Sulforhodamine B assay. Type of assay: functional, cell-based.
A further assay has as its system HepG2. Description: Anti-cancer activity against human HepG2 cells assessed as cell survival at 10 uM for 72 hrs replaced with compound containing fresh culture medium every 12 hrs by Sulforhodamine B assay. It is filed as functional, cell-based.
In a further assay the test system is SW48. Nature of the assay: Anti-cancer activity against human SW48 cells assessed as cell survival at 10 uM for 72 hrs replaced with compound containing fresh culture medium every 12 hrs by Sulforhodamine B assay. Type of assay: functional, cell-based.
Another assay deals with HGC-27. Nature of the assay: Anti-cancer activity against human HGC-27 cells assessed as cell survival at 10 uM for 72 hrs replaced with compound containing fresh culture medium every 12 hrs by Sulforhodamine B assay. Type of assay: functional, cell-based.
Assay [4] concerns HeLa. Description: Anti-cancer activity against human HeLa cells assessed as cell survival at 10 uM for 72 hrs replaced with compound containing fresh culture medium every 12 hrs by Sulforhodamine B assay. Type of assay: functional, cell-based.
The subject of another assay is A549. Nature of the assay: Anti-cancer activity against human A549 cells assessed as cell survival at 10 uM for 72 hrs replaced with compound containing fresh culture medium every 12 hrs by Sulforhodamine B assay. Type of assay: functional, cell-based.
Assay [5] deals with HeLa. Description: Cytotoxicity against human HeLa cells transfected with hCRM1-C528S-mutant assessed as cell viability measured for 72 hrs replaced with compound containing fresh culture medium every 12 hrs by Sulforhodamine B assay. It is filed as functional, cell-based.

Active and inactive are the calls of the source. The calls are words filed in the database; no cut-off is given here.

As to `CC(C)CCNc1cc(C[S+]([O-])c2cc(C(F)(F)F)cc(C(F)(F)F)c2)on1` (stereo unspecified), the inhibition entry in [1] is “inactive”. The outcome with HeLa [2] was inactive.
As for `O=C(/C=C\n1cnc(-c2cc(C(F)(F)F)cc(C(F)(F)F)c2)n1)NNc1cnccn1`, the inhibition result in the assay with Saccharomyces cerevisiae, in the assay with HeLa [3] and on Exportin-1 was “inactive” each time. Moreover, the result with PANC-1, with Huh-7, in the assay on HCT-116, with A2780, in the assay on MGC-803 and in the assay on HepG2 was Active. The result in the assay with SW48, in the assay with HGC-27, with HeLa [4] and with A549 was Active. The result in the assay on HeLa [5] was inactive.
Take `[O-][S+](Cc1ccnc(Cl)c1)c1cc(C(F)(F)F)cc(C(F)(F)F)c1` (stereo unspecified): the inhibition entry in assay [1] was “inactive”. Besides, in the assay with HeLa [2], the outcome was inactive.
Take `FC(F)(F)c1cc(S/C=C/CBr)cc(C(F)(F)F)c1`: the inhibition result (in [1]; in the assay with Saccharomyces cerevisiae) was “Active” each time. In the assay on HeLa [2], the result was inactive.
For `[O-][S+](Cc1cc(Br)no1)c1cc(C(F)(F)F)cc(C(F)(F)F)c1` (stereo unspecified), the inhibition result in assay [1] was “inactive”. Further, the result in the assay with HeLa [2] was inactive.
In the case of `CC(C)CCNc1cc(C[S+]([O-])c2cc(C(F)(F)F)cc(C(F)(F)F)c2)ccn1` (stereo unspecified), in assay [1], the inhibition result was “inactive”. For the same compound, in the assay with HeLa [2], the result was inactive.
Turning to `CC1=C(COCCC(C)(C)C)C(=O)N(Nc2ccc(C(F)(F)F)c(Cl)n2)C1=O`, the result in the assay on PANC-1, in the assay with Huh-7, in the assay with HCT-116, in the assay with A2780, with MGC-803 and with HepG2 was Active. Besides, the outcome in the assay on SW48, in the assay on HGC-27, in the assay on HeLa [4] and in the assay with A549 was Active.
Take `[O-][S+](/C=C/CBr)c1cc(C(F)(F)F)cc(C(F)(F)F)c1` (stereo unspecified): the inhibition entry (in [1]; in the assay with Saccharomyces cerevisiae) was “Active” throughout. In addition, the result in the assay on HeLa [2] was inactive.
As to `CC(C)CCNC/C=C/Sc1cc(C(F)(F)F)cc(C(F)(F)F)c1`, the result in the assay with HeLa [2] was inactive.
For the compound `FC(F)(F)c1cc(SCc2ccnc(Cl)c2)cc(C(F)(F)F)c1`, the inhibition result in assay [1] is “inactive”. Moreover, the outcome in the assay on HeLa [2] was inactive.
